Source: ChEMBL document CHEMBL3885881, “DrugMatrix”

Organism: Rattus norvegicus
Assay: DrugMatrix - Regimen: Daily Repeat
Format: toxicity, organism-based, Sprague-Dawley
Parameters: regimen Daily Repeat, gender Male, age 6-8 weeks
Details: in vivo, po, route oral GAVAGE, vehicle .5 % CMC; for ABSOLUTE BASOPHIL / ABSOLUTE EOSINOPHIL / ABSOLUTE LYMPHOCYTE / ABSOLUTE MONOCYTE / ABSOLUTE SEGMENTED NEUTROPHIL / BASOPHIL / EOSINOPHIL / ERYTHROCYTE COUNT / HEMATOCRIT / HEMOGLOBIN / LEUKOCYTE COUNT / LYMPHOCYTE / MEAN CORPUSCULAR HEMOGLOBIN / MEAN CORPUSCULAR HEMOGLOBIN CONCENTRATION / MEAN CORPUSCULAR VOLUME / MONOCYTE / NEUTROPHIL / NUCLEATED RED BLOOD CELLS / PLATELET COUNT: tissue Blood; for ALANINE AMINOTRANSFERASE / ALBUMIN / ALKALINE PHOSPHATASE / ASPARTATE AMINOTRANSFERASE / BLOOD UREA NITROGEN / CARBON DIOXIDE / CHLORIDE / CHOLESTEROL / CREATINE PHOSPHOKINASE / CREATININE / GLUCOSE / LACTATE DEHYDROGENASE / LIPASE / PHOSPHORUS / POTASSIUM / SODIUM / TOTAL BILIRUBIN / TOTAL PROTEIN / URIC ACID: tissue Plasma
[1] = 0 mg/kg, 72 h, dose level Control, time 3 day
[2] = 0 mg/kg, 120 h, dose level Control, time 5 day
[3] = 25 mg/kg, 72 h, dose level Low, time 3 day

C[C@](O)(CS(=O)(=O)c1ccc(F)cc1)C(=O)Nc1ccc(C#N)c(C(F)(F)F)c1 [(R)-BICALUTAMIDE]
ABSOLUTE BASOPHIL [1]: 0 CELLS/uL | ABSOLUTE EOSINOPHIL [1]: 171.33 CELLS/uL | ABSOLUTE LYMPHOCYTE [1]: 13776.5 CELLS/uL | ABSOLUTE MONOCYTE [1]: 180.83 CELLS/uL | ABSOLUTE SEGMENTED NEUTROPHIL [1]: 1121.33 CELLS/uL | BASOPHIL [1]: 0% | EOSINOPHIL [1]: 1% | ERYTHROCYTE COUNT [1]: 5.56 x10E6/uL | HEMATOCRIT [1]: 34.75% | HEMOGLOBIN [1]: 13.68 G/DL | LEUKOCYTE COUNT [1]: 15.25 x10E3/uL | LYMPHOCYTE [1]: 90.17% | MEAN CORPUSCULAR HEMOGLOBIN [1]: 24.6 pg | MEAN CORPUSCULAR HEMOGLOBIN CONCENTRATION [1]: 39.4 G/DL | MEAN CORPUSCULAR VOLUME [1]: 62.48 fL | MONOCYTE [1]: 1.17% | NEUTROPHIL [1]: 7.67% | NUCLEATED RED BLOOD CELLS [1]: 0 /100WBC | PLATELET COUNT [1]: 1342 x10E3/uL | ALANINE AMINOTRANSFERASE [1]: 49.67 u/L | ALBUMIN [1]: 4.15 G/DL | ALKALINE PHOSPHATASE [1]: 346.83 u/L | ASPARTATE AMINOTRANSFERASE [1]: 108.17 u/L | BLOOD UREA NITROGEN [1]: 17.33 mg/dL | CARBON DIOXIDE [1]: 25 mmol/L | CHLORIDE [1]: 100.83 MEQ/L | CHOLESTEROL [1]: 66.83 mg/dL | CREATINE PHOSPHOKINASE [1]: 788 u/L | CREATININE [1]: 0.18 mg/dL | GLUCOSE [1]: 151.67 mg/dL | LACTATE DEHYDROGENASE [1]: 982.5 u/L | LIPASE [1]: 10.33 u/L | PHOSPHORUS [1]: 11.23 mg/dL | POTASSIUM [1]: 6.37 MEQ/L | SODIUM [1]: 141.02 MEQ/L | TOTAL BILIRUBIN [1]: 0.18 mg/dL | TOTAL PROTEIN [1]: 5.9 G/DL | URIC ACID [1]: 1.8 mg/dL | ABSOLUTE BASOPHIL [2]: 0 CELLS/uL | ABSOLUTE EOSINOPHIL [2]: 69 CELLS/uL | ABSOLUTE LYMPHOCYTE [2]: 13632.83 CELLS/uL | ABSOLUTE MONOCYTE [2]: 139.83 CELLS/uL | ABSOLUTE SEGMENTED NEUTROPHIL [2]: 1225 CELLS/uL | BASOPHIL [2]: 0% | EOSINOPHIL [2]: 0.33% | ERYTHROCYTE COUNT [2]: 5.52 x10E6/uL | HEMATOCRIT [2]: 33.98% | HEMOGLOBIN [2]: 13.22 G/DL | LEUKOCYTE COUNT [2]: 15.07 x10E3/uL | LYMPHOCYTE [2]: 90.83% | MEAN CORPUSCULAR HEMOGLOBIN [2]: 23.95 pg | MEAN CORPUSCULAR HEMOGLOBIN CONCENTRATION [2]: 38.9 G/DL | MEAN CORPUSCULAR VOLUME [2]: 61.53 fL | MONOCYTE [2]: 0.83% | NEUTROPHIL [2]: 8% | NUCLEATED RED BLOOD CELLS [2]: 0 /100WBC | PLATELET COUNT [2]: 1196 x10E3/uL | ALANINE AMINOTRANSFERASE [2]: 49.17 u/L | ALBUMIN [2]: 4.2 G/DL | ALKALINE PHOSPHATASE [2]: 352.33 u/L | ASPARTATE AMINOTRANSFERASE [2]: 89.67 u/L | BLOOD UREA NITROGEN [2]: 18 mg/dL | CARBON DIOXIDE [2]: 27.67 mmol/L | CHLORIDE [2]: 101 MEQ/L | CHOLESTEROL [2]: 72.83 mg/dL | CREATINE PHOSPHOKINASE [2]: 417.5 u/L | CREATININE [2]: 0.18 mg/dL | GLUCOSE [2]: 150.5 mg/dL | LACTATE DEHYDROGENASE [2]: 517.33 u/L | LIPASE [2]: 9 u/L | PHOSPHORUS [2]: 11.87 mg/dL | POTASSIUM [2]: 6.57 MEQ/L | SODIUM [2]: 143.62 MEQ/L | TOTAL BILIRUBIN [2]: 0.2 mg/dL | TOTAL PROTEIN [2]: 6.08 G/DL | URIC ACID [2]: 1.45 mg/dL | ABSOLUTE BASOPHIL [3]: 0 CELLS/uL | ABSOLUTE EOSINOPHIL [3]: 0 CELLS/uL | ABSOLUTE LYMPHOCYTE [3]: 11565 CELLS/uL | ABSOLUTE MONOCYTE [3]: 208.33 CELLS/uL | ABSOLUTE SEGMENTED NEUTROPHIL [3]: 926.67 CELLS/uL | BASOPHIL [3]: 0% | EOSINOPHIL [3]: 0% | ERYTHROCYTE COUNT [3]: 5.66 x10E6/uL | HEMATOCRIT [3]: 35.2% | HEMOGLOBIN [3]: 13.9 G/DL | LEUKOCYTE COUNT [3]: 12.7 x10E3/uL | LYMPHOCYTE [3]: 91% | MEAN CORPUSCULAR HEMOGLOBIN [3]: 24.57 pg | MEAN CORPUSCULAR HEMOGLOBIN CONCENTRATION [3]: 39.47 G/DL | MEAN CORPUSCULAR VOLUME [3]: 62.23 fL | MONOCYTE [3]: 1.67% | NEUTROPHIL [3]: 7.33% | NUCLEATED RED BLOOD CELLS [3]: 0.33 /100WBC | PLATELET COUNT [3]: 1165 x10E3/uL | ALANINE AMINOTRANSFERASE [3]: 46.33 u/L | ALBUMIN [3]: 4.1 G/DL | ALKALINE PHOSPHATASE [3]: 367.67 u/L | ASPARTATE AMINOTRANSFERASE [3]: 75.67 u/L | BLOOD UREA NITROGEN [3]: 14.33 mg/dL | CARBON DIOXIDE [3]: 27 mmol/L | CHLORIDE [3]: 102.67 MEQ/L | CHOLESTEROL [3]: 80.33 mg/dL | CREATINE PHOSPHOKINASE [3]: 447.67 u/L | CREATININE [3]: 0.21 mg/dL | GLUCOSE [3]: 137.67 mg/dL | LACTATE DEHYDROGENASE [3]: 242 u/L | LIPASE [3]: 10.67 u/L | PHOSPHORUS [3]: 11.97 mg/dL | POTASSIUM [3]: 6.21 MEQ/L | SODIUM [3]: 143.67 MEQ/L | TOTAL BILIRUBIN [3]: 0.2 mg/dL | TOTAL PROTEIN [3]: 5.87 G/DL | URIC ACID [3]: 1.37 mg/dL
